Assay results: patent US20010036944A1, “Certain benzothiazine dioxide endothelin antagonists and processes for their preparation” (priority 1997, published 2001)
Where a name gives a salt, the structure may show the parent alone. Read-outs that look alike come from different tables or passages of the source.

How the values were obtained:
[1] = target: T1, recombinant human ETAR (HETA) (Homo sapiens, UniProt P25101); experiment: Radioligand binding, [125I]ET-1 to membranes of Ltk- cells expressing recombinant human ETAR (HETA); details: [125I]ET-1 binding, human ETA, Ltk- cell membranes; read-out: HETA (IC50)
T1 construct: expressed in transfected cells; host or cells: Ltk- cells (membrane preparation)
T1 sequence (P25101 21-427): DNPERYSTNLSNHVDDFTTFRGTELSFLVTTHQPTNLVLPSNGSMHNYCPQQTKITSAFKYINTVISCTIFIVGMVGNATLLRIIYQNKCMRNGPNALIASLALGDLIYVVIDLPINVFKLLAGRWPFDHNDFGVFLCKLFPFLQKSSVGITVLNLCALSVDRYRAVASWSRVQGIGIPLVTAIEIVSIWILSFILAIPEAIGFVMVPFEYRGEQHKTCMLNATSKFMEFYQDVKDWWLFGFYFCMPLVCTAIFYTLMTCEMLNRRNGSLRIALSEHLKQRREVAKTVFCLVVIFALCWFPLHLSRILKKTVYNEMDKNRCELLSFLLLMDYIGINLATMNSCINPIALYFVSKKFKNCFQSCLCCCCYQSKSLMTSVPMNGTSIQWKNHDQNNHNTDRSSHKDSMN
Experimental: (§1) The following cultured cells were used in binding experiments: Ltk-cells expressing recombinant human ETAR (HETA), and CHOKI cells expressing recombinant human ETBR (HETB).
(§2) Membranes were prepared from cultured cells by lysing cells in cold lysis buffer (5 mM HEPES, 2 mM EDTA, pH 7.4) and homogenizing with a Dounce “A” homogenizer. The homogenate was centrifuged at 30,000×g for 20 minutes at […]. Membrane pellets were suspended in cold buffer containing 20 mM Tris, 2 mM EDTA, 200 μM Pefabloc, 10 μM phosphoramidon, 10 μM leupeptin, 1 μM pepstatin at pH 7.4 and frozen at […] until use. Membranes were thawed and homogenized with a Brinkmann Polytron then diluted in tissue buffer containing 20 mM Tris, 2 mM EDTA, 200 μM Pefabloc, and 100 μM bacitracin (pH 7.4). Radioligand and competing ligands were prepared in binding buffer containing 20 mM Tris, 2 mM EDTA, and 0.1% BSA.
(§3) The assay was terminated by filtration over Whatman GF/B filters which were presoaked with 50 mM Tris, pH 7.4 containing 0.2% BSA and 100 μM bacitracin. Nonspecific binding was defined as binding in the presence of 100 nM ET-1.

[2] = tested on: ETA, rabbit femoral artery; experiment: Antagonism of ET-1 stimulated vasoconstriction (VERAA) in the rabbit femoral artery (ETA); details: ET-1 stimulated vasoconstriction, rabbit femoral artery
Excerpt: In Vitro Antagonism of ET-1 Stimulated Vasoconstriction (VERAA) in the Rabbit Femoral Arterv (ETA) and Sarafotoxin 6C Stimulated Vasoconstriction in the Rabbit Pulmonarv Artery (ETB)
Male New Zealand rabbits were killed by cervical dislocation and exsanguination. Femoral and pulmonary arteries were isolated, cleaned of connective tissue, and cut into 4mm rings. The endothelium was denuded by placing the rings over hypodermic tubing (32 gauge for femoral rings and 28 gauge for pulmonary rings, Small Parts, Inc., Miami, Fla.) and gently rolling them. Denuded rings were mounted in 20 mL organ baths containing Krebsbicarbonate buffer (composition in mM: NaCl, 118.2; NaHCO3, 24.8; KCl, 4.6; MgSO4 7H2O, 1.2; KH2PO4, 1.2; CaCl2 2H2O; CaNa2 EDTA, 0.026;, dextrose, 10.0), that was maintained at 37° C. and gassed continuously with 5% CO2 in oxygen (pH 7.4). Resting tension was adjusted to 3.0 g for femoral and 4.0 g pulmonary arteries; the rings were left for 90 minutes to equilibrate. Vascular rings were tested for lack of functional endothelium (ie, lack of an endotheliumdependent relaxation response to carbachol ([…]) in norepinephrine ([…]) contracted rings. Agonist peptides, ET-1 -(femoral), and S6c (pulmonary), were cumulatively added at 10-minute intervals. The ET antagonists were added 30 minutes prior to adding the agonist.

[3] = target: T2, recombinant human ETBR (HETB) (Homo sapiens, UniProt P24530); experiment: Radioligand binding, [125I]ET-1 to membranes of CHOKI cells expressing recombinant human ETBR (HETB); details: [125I]ET-1 binding, human ETB, CHOKI cell membranes
T2 construct: expressed in transfected cells; host or cells: CHOKI (CHO-K1) cells (membrane preparation)
T2 sequence (P24530 27-442): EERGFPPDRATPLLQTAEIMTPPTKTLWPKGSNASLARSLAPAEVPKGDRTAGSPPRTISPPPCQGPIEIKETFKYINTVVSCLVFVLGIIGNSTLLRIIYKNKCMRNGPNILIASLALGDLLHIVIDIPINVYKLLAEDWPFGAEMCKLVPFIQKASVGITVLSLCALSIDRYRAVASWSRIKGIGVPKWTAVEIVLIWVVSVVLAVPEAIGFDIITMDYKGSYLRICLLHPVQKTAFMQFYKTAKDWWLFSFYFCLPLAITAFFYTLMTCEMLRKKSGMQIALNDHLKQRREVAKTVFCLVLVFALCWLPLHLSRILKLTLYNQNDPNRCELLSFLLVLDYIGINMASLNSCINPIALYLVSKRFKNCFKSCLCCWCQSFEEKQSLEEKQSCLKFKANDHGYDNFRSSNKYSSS
Experimental: as §1, §2, §3

[4] = tested on: ETA, cultured rabbit renal artery vascular smooth muscle cells; experiment: Inhibition of ET-1 stimulated arachidonic acid release (AAR) in cultured rabbit vascular smooth muscle cells (ETA); assay type: cell-based
Experimental: In Vitro Inhibition of ET-1 Stimulated Arachidonic Acid Release (AAR) in Cultured Rabbit Vascular Smooth Muscle Cells (ETA) by the Compounds of the Invention
Antagonist activity is measured by the ability of added compounds to reduce endothelinstimulated arachidonic acid release in cultured vascular smooth muscle cells. [^3H]Arachidonic Acid Loading Media (LM) is DME/F12+0.5% FCS×0.25 mCi/mL [^3H]arachidonic acid (Amersham). Confluent monolayers of cultured rabbit renal artery vascular smooth muscle cells were incubated in 0.5 mL of the LM over 18 hours, at 37° C., in 5% CO2. The LM was aspirated and the cells were washed once with the assay buffer (Hank's BSS +10 mM HEPES +fatty acidfree BSA (1 mg/mL)), and incubated for 5 minutes with 1 mL of the prewarmed assay buffer. This solution was aspirated, followed by an additional 1 mL of prewarmed assay buffer, and further incubated for another 5 minutes. A final 5minute incubation was carried out in a similar manner. The same procedure was repeated with the inclusion of 10 μL of the test compound (1 nM to 1 μM) and 10 μL ET-1 -(0.3 nM) and the incubation was extended for 30 minutes. This solution was then collected, 10 mL of scintillation cocktail was added, and the amount of [^3H]arachidonic acid was determined in a liquid scintillation counter.

[5] = Oryctolagus cuniculus, VSMC, read-out: AARA (IC50, μM)

Compound	IC50 [1] [nM]	VERAA (pA2) [2]	IC50 [3] [nM]	IC50 ([4]; ET-1 (0.3 nM) stimulated arachidonic acid release, rabbit renal artery VSMC, read-out: AARA (IC50)) [µM]	IC50 [4, 5] [µM]
4-(3,5-Dimethyl-phenyl)-2-(2-trifluoro-methyl-phenyl)-1,1-dioxo-1,2dihydro-1λ^6-benzo[e][1,2]thiazine-3-carboxylic acid [Example 31]	6	5.7	> 2500		
4-(7-Methoxybenzo[1,3]-dioxol-5-yl)-1,1-dioxo-2-(2-trifluoromethyl-phenyl) 1,2-dihydro 1λ^6-benzo [e][1,2thiazine-3-carboxylic acid [Example 7]	3	7.0		0.0045	
COc1cc(OC)cc(C2=C(C(=O)O)N(c3ccccc3C(F)(F)F)S(=O)(=O)c3ccccc32)c1 [Example 1, 4-(3,5-Dimethoxyphenyl)2-(2-trifluoromethyl-phenyl)-1,1-dioxo-1,2-dihydro-1λ^6-benzo[e][1,2]thiazine-3-carboxylic acid]	3	6.6	> 2500		
COc1cc(OC)cc(C2=C(C(=O)O)N(c3ccccc3Cl)S(=O)(=O)c3ccccc32)c1 [Example 2]	2	6.6	7300		
COc1cc(C2=C(C(=O)[O-])N(c3c(C)cccc3C)S(=O)(=O)c3ccccc32)cc2c1OCO2.[Na+] [Example 6, 2-(2,6-Dimeth Iphenyl)4-(7-methoxy-benzo-[1,3]dioxol-5vl)-1,1 dioxo 1,2dihydro 1λ^6-benzo[e][1,2]thiazine-3-carboxylic acid monosodium salt]	4	7.1	> 2500		
COc1cc(C2=C(C(=O)O)N(c3ccccc3C)S(=O)(=O)c3ccccc32)cc2c1OCO2 [Example 8, 4-(7-Methoxy-benzo[1,3]dioxol-5-yl)-1,1-dioxo-2o-tolyl-1,2-dihydro-1,6-benzo[e][1,2]-thiazine-3-carboxylic acid]	8	6.5	3900		
COc1cc(C2=C(C(=O)O)N(c3ccccc3Br)S(=O)(=O)c3ccccc32)cc2c1OCO2 [Example 9, 2-(2-Bromo-phenyl)4-(7-methoxy-benzo[1,3]-dioxol-5-yl)-1,1 dioxo 1,2-dihydro-1λ^6-benzo[e][1,2]-thiazine-3-carboxylic acid monosodium salt]	2	6.9	> 2500		
O=C(O)C1=C(c2ccc3c(c2)OCO3)c2ccccc2S(=O)(=O)N1c1ccccc1C(F)(F)F [Example 11, 4-Benzo[1,3]dioxol-5-yl-1,1-dioxo-2-(2-trifluoromethyl-phenyl)-1,2-dihydro-1λ^6-benzo[e][1,2]thiazine-3-carboxylic acid]	11	6.6	11000		
Cc1ccccc1N1C(C(=O)O)=C(c2ccc3c(c2)OCO3)c2ccccc2S1(=O)=O [Example 12]	61		> 25000		0.1
CCCc1ccccc1N1C(C(=O)O)=C(c2ccc3c(c2)OCO3)c2ccccc2S1(=O)=O [Example 14, 4-Benzo[1,3]dioxol-5-yl-2-(2-1,2-pyphenyl)-1,1-dioxo 1,2-dihydro-1λ^6-benzo[e][1,2]thiazine-3-carboxylic acid]	35	5.8	> 2500		
O=C(O)C1=C(c2ccc3c(c2)OCO3)c2ccccc2S(=O)(=O)N1c1ccccc1Br [Example 17, 4-Benzo[1,3]dioxol-5yl-2-(2bromophenyl)-1,1-dioxo-1,2-dihydro-1λ^6-benzo[e][1,2]thiazine-3-carboxylic acid]	30		> 25000		0.031
O=C(O)C1=C(c2ccc3c(c2)OCO3)c2ccccc2S(=O)(=O)N1c1ccccc1Cl [Example 18, 4-Benzo [1,3]dioxol-5yl-2-(2-chlorophenyl)-1,1-dioxo-1,2-dihydro-1λ^6-benzo[e][1,2]thiazine-3-carboxylic acid]	36	5.8	> 25000		0.032
O=C(O)C1=C(c2ccc3c(c2)OCO3)c2ccccc2S(=O)(=O)N1c1cc2c(cc1Cl)OCO2 [Example 25]	110	6.0	> 25000		0.05
O=C(O)C1=C(c2ccc3c(c2)OCO3)c2ccccc2S(=O)(=O)N1c1ccccc1-n1cccc1 [Example 27, 4-Benzo[1,3]dioxol-5-yl-1,1-dioxo-2-(2-2-pyrrol-1-ylphenyl)-1,2-dihydro-1λ^6-benzo[e][12]thiazine-3-carboxylic acid]	40		19000		
Cc1noc(N2C(C(=O)O)=C(c3ccc4c(c3)OCO4)c3ccccc3S2(=O)=O)c1C [Example 28]	90		> 25000		
O=C(O)C1=C(c2ccc3c(c2)OCO3)c2ccccc2S(=O)(=O)N1c1ccccc1Cc1ccccc1 [Example 29, 4-Benzo[1,3]dioxol-5-yl-2-(2benzylphenyl)-1,1-dioxo-1,2-dihydro-1λ^6-benzo[e][1,2]thiazine-3-carboxylic acid]	40		> 2500		
